Key:
[1] = biological target: human JAK1 (a.a. 837-1142) (Homo sapiens, UniProt P23458); experiment: In vitro JAK kinase assay (HTRF), JAK1; type: biochemical; details: 1 mM ATP
[2] = biological target: human JAK2 (a.a. 828-1132) (Homo sapiens (Human), UniProt O60674); experiment: In vitro JAK kinase assay (HTRF), JAK2; type: biochemical; details: JAK2/JAK1 IC50 ratio, 1 mM ATP
MRL-lpr mice = experiment: Topical treatment of CLE-like lesions in lupus-prone MRL-lpr mice; type: in vivo, mouse
Excerpt: Topical treatment with JAK1-selective INCB054707 started with the MRL-lpr Mice at 11 weeks of age.

[3] = second independent experiment, dose-response
[4] = topical, 11 to 22 weeks, compared to placebo-treated mice

Sequence of human JAK2 (a.a. 828-1132) (O60674 828-1132): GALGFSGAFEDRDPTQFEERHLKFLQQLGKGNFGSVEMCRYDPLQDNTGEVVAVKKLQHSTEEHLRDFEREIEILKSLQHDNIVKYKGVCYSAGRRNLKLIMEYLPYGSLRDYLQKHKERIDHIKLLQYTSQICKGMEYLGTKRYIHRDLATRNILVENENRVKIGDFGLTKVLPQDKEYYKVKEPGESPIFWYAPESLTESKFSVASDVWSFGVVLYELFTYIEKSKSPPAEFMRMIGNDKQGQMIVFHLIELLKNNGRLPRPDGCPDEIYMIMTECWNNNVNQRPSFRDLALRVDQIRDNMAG

| SMILES | IC50 [1] | JAK2/JAK1 [2] | also measured |
| --- | --- | --- | --- |
| N#CCC(C1CCN(c2cccc(Cl)n2)C1)n1cc(-c2ncnc3[nH]ccc23)cn1 (single isomer, unassigned) [Compound 6, 3-[1-(6-chloropyridin-2-yl)pyrrolidin-3-yl]-3-[4-(7H-pyrrolo[2,3-d]pyrimidin-4-yl)-1H-pyrazol-1-yl]propanenitrile] | < 10 nM | >10 | – |
| N#CCC1(n2cc(-c3ncnc4[nH]ccc34)cn2)CN(C2CCN(C(=O)Nc3ccc(F)cc3C(F)(F)F)CC2)C1 [Compound 2, 4-{3-(Cyanomethyl)-3-[4-(7H-pyrrolo[2,3-d]pyrimidin-4-yl)-1H-pyrazol-1-yl]azetidin-1-yl}-N-[4-fluoro-2-(trifluoromethyl)phenyl]piperidine-1-carboxamide] | < 10 nM | >10 | – |
| N#CCC1(n2cc(-c3ncnc4[nH]ccc34)cn2)CN(C2CCN(C(=O)c3ccnc(C(F)(F)F)n3)CC2)C1 [Compound 3, [3-[4-(7H-pyrrolo[2,3-d]pyrimidin-4-yl)-1H-pyrazol-1-yl]-1-(1-{[2-(trifluoromethyl)pyrimidin-4-yl]carbonyl}piperidin-4-yl)azetidin-3-yl]acetonitrile] | < 10 nM | >10 | – |
| C[C@@H](O)c1nc2cnc3ccsc3c2n1[C@H]1CC[C@H](CC#N)OC1 [Compound 5, ((2R,5S)-5-{2-[(1R)-1-hydroxyethyl]-1H-imidazo[4,5-d]thieno[3,2-b]pyridin-1-yl}tetrahydro-2H-pyran-2-yl)acetonitrile] | < 100 nM | >10 | – |
| N#CCC(C1CCN(c2nc3cccnc3o2)C1)n1cc(-c2ncnc3[nH]ccc23)cn1 (centres unmarked) [Compound 7, 3-(1-[1,3]oxazolo[5,4-b]pyridin-2-ylpyrrolidin-3-yl)-3-[4-(7H-pyrrolo[2,3-d]pyrimidin-4-yl)-1H-pyrazol-1-yl]propanenitrile] | < 10 nM | >10 | – |
| N#CCC(CN1CCN(C(=O)c2ccc(C#N)cc2F)CC1)n1cc(-c2ncnc3[nH]ccc23)cn1 (centres unmarked) [Compound 8, 4-[(4-{3-cyano-2-[4-(7H-pyrrolo[2,3-d]pyrimidin-4-yl)-1H-pyrazol-1-yl]propyl}piperazin-1-yl)carbonyl]-3-fluorobenzonitrile] | < 10 nM | >10 | – |
| N#CCC(CN1CCN(C(=O)c2ccc(C#N)cc2F)CC1)n1ccc(-c2ncnc3[nH]ccc23)c1 (centres unmarked) [Compound 9, 4-[(4-{3-cyano-2-[3-(7H-pyrrolo[2,3-d]pyrimidin-4-yl)-1H-pyrrol-1-yl]propyl}piperazin-1-yl)carbonyl]-3-fluorobenzonitrile] | < 10 nM | >10 | – |
| N#CC[C@]1(n2cc(-c3ncnc4[nH]ccc34)cn2)C[C@H](N2CCN(C(=O)c3ccnc(C(F)(F)F)n3)CC2)C1 [Compound 10, [trans-1-[4-(7H-pyrrolo[2,3-d]pyrimidin-4-yl)-1H-pyrazol-1-yl]-3-(4-{[2-(trifluoromethyl)pyrimidin-4-yl]carbonyl}piperazin-1-yl)cyclobutyl]acetonitrile] | < 10 nM | >10 | – |
| C[C@H](NC(=O)c1cc(F)c(N2CC(CC#N)(n3cc(-c4ncnc5[nH]ccc45)cn3)C2)cc1F)C(F)(F)F [Compound 16, 4-{3-(cyanomethyl)-3-[4-(7H-pyrrolo[2,3-d]pyrimidin-4-yl)-1H-pyrazol-1-yl]azetidin-1-yl}-2,5-difluoro-N-[(1S)-2,2,2-trifluoro-1-methylethyl]benzamide] | < 10 nM | >10 | – |
| N#CCC1(n2cc(-c3ncnc4[nH]ccc34)cn2)CN([C@H]2CC[C@@H](Oc3cc(CCO)nc(C(F)(F)F)n3)CC2)C1 [Compound 18, {1-(cis-4-{[6-(2-hydroxyethyl)-2-(trifluoromethyl)pyrimidin-4-yl]oxy}cyclohexyl)-3-[4-(7H-pyrrolo[2,3-d]pyrimidin-4-yl)-1H-pyrazol-1-yl]azetidin-3-yl}acetonitrile] | < 10 nM | >10 | – |
| N#CCC1(n2cc(-c3ncnc4[nH]ccc34)cn2)CN([C@H]2CC[C@@H](Oc3cc(CN4CC[C@@H](O)C4)cc(C(F)(F)F)n3)CC2)C1 [Compound 21, {1-(cis-4-{[4-{[(3R)-3-hydroxypyrrolidin-1-yl]methyl}-6-(trifluoromethyl)pyridin-2-yl]oxy}cyclohexyl)-3-[4-(7H-pyrrolo[2,3-d]pyrimidin-4-yl)-1H-pyrazol-1-yl]azetidin-3-yl}acetonitrile] | < 10 nM | >10 | – |
| Cc1n[nH]c(C)c1-c1cnn(C2(CC#N)CN(c3cc(F)c(C(=O)N[C@@H](C)C(F)(F)F)cc3F)C2)c1 [INCB054707] | – | – | cumulative skin lesion disease burden (MRL-lpr mice; [3]): significant dose-dependent effects; daily cutaneous skin lesion score (MRL-lpr mice; [3]): significant dose-dependent effects; incidence of mice with skin lesions (MRL-lpr mice; [3]): significant dose-dependent effects; cumulative skin lesion disease burden (area under the curve) (MRL-lpr mice; topical, 11 to 22 weeks): significantly reduced; cutaneous skin lesion score (MRL-lpr mice; [4]): significantly reduced; incidence of mice with skin lesions (MRL-lpr mice; [4]): significantly reduced; inflammatory markers, RNAseq of skin biopsy (MRL-lpr mice; topical, dose-dependent): downregulation of multiple inflammatory markers; lesional skin regarding erythema, induration, scaling and size (MRL-lpr mice; topical, from 11 weeks to 22 weeks of age): continuously improved |

The next lines start with results.

| IC50 [1] | JAK2/JAK1 [2] | SMILES | also measured |
| --- | --- | --- | --- |
| < 10 nM | >10 | N#CC[C@]1(n2cc(-c3ncnc4[nH]ccc34)cn2)C[C@H](N2CCC(Oc3cc(CN4CC(O)C4)cc(C(F)(F)F)n3)CC2)C1 [Compound 11, {trans-3-(4-{[4-[(3-hydroxyazetidin-1-yl)methyl]-6-(trifluoromethyl)pyridin-2-yl]oxy}piperidin-1-yl)-1-[4-(7H-pyrrolo[2,3-d]pyrimidin-4-yl)-1H-pyrazol-1-yl]cyclobutyl}acetonitrile] | – |
| < 10 nM | >10 | N#CC[C@]1(n2cc(-c3ncnc4[nH]ccc34)cn2)C[C@H](N2CCC(Oc3cc(CN4CCC[C@H]4CO)cc(C(F)(F)F)n3)CC2)C1 [Compound 12, {trans-3-(4-{[4-{[(2S)-2-(hydroxymethyl)pyrrolidin-1-yl]methyl}-6-(trifluoromethyl)pyridin-2-yl]oxy}piperidin-1-yl)-1-[4-(7H-pyrrolo[2,3-d]pyrimidin-4-yl)-1H-pyrazol-1-yl]cyclobutyl}acetonitrile] | – |
| < 10 nM | >10 | N#CC[C@]1(n2cc(-c3ncnc4[nH]ccc34)cn2)C[C@H](N2CCC(Oc3cc(CN4CCC[C@@H]4CO)cc(C(F)(F)F)n3)CC2)C1 [Compound 13, {trans-3-(4-{[4-{[(2R)-2-(hydroxymethyl)pyrrolidin-1-yl]methyl}-6-(trifluoromethyl)pyridin-2-yl]oxy}piperidin-1-yl)-1-[4-(7H-pyrrolo[2,3-d]pyrimidin-4-yl)-1H-pyrazol-1-yl]cyclobutyl}acetonitrile] | – |
| < 10 nM | >10 | CCNCc1cc(O[C@H]2CC[C@@H](N3CC(CC#N)(n4cc(-c5ncnc6[nH]ccc56)cn4)C3)CC2)nc(C(F)(F)F)c1 [Compound 19, {1-(cis-4-{[4-[(ethylamino)methyl]-6-(trifluoromethyl)pyridin-2-yl]oxy}cyclohexyl)-3-[4-(7H-pyrrolo[2,3-d]pyrimidin-4-yl)-1H-pyrazol-1-yl]azetidin-3-yl}acetonitrile] | – |
| < 10 nM | >10 | CC(C)(O)c1cc(O[C@H]2CC[C@@H](N3CC(CC#N)(n4cc(-c5ncnc6[nH]ccc56)cn4)C3)CC2)nc(C(F)(F)F)c1 [Compound 20, {1-(cis-4-{[4-(1-hydroxy-1-methylethyl)-6-(trifluoromethyl)pyridin-2-yl]oxy}cyclohexyl)-3-[4-(7H-pyrrolo[2,3-d]pyrimidin-4-yl)-1H-pyrazol-1-yl]azetidin-3-yl}acetonitrile] | – |
| < 10 nM | >10 | N#CCC1(n2cc(-c3ncnc4[nH]ccc34)cn2)CN([C@H]2CC[C@@H](Oc3cc(CN4CC[C@H](O)C4)cc(C(F)(F)F)n3)CC2)C1 [Compound 22, {1-(cis-4-{[4-{[(3S)-3-hydroxypyrrolidin-1-yl]methyl}-6-(trifluoromethyl)pyridin-2-yl]oxy}cyclohexyl)-3-[4-(7H-pyrrolo[2,3-d]pyrimidin-4-yl)-1H-pyrazol-1-yl]azetidin-3-yl}acetonitrile] | – |
| < 10 nM | >10 | C[C@@H](CO)NCc1cc(OC2CCN([C@H]3C[C@](CC#N)(n4cc(-c5ncnc6[nH]ccc56)cn4)C3)CC2)nc(C(F)(F)F)c1 [Compound 23, {trans-3-(4-{[4-({[(1S)-2-hydroxy-1-methylethyl]amino}methyl)-6-(trifluoromethyl)pyridin-2-yl]oxy}piperidin-1-yl)-1-[4-(7H-pyrrolo[2,3-d]pyrimidin-4-yl)-1H-pyrazol-1-yl]cyclobutyl}acetonitrile] | – |
| < 10 nM | >10 | C[C@@H](O)CNCc1cc(OC2CCN([C@H]3C[C@](CC#N)(n4cc(-c5ncnc6[nH]ccc56)cn4)C3)CC2)nc(C(F)(F)F)c1 [Compound 24, {trans-3-(4-{[4-({[(2R)-2-hydroxypropyl]amino}methyl)-6-(trifluoromethyl)pyridin-2-yl]oxy}piperidin-1-yl)-1-[4-(7H-pyrrolo[2,3-d]pyrimidin-4-yl)-1H-pyrazol-1-yl]cyclobutyl}acetonitrile] | – |
| < 10 nM | >10 | C[C@H](O)CNCc1cc(OC2CCN([C@H]3C[C@](CC#N)(n4cc(-c5ncnc6[nH]ccc56)cn4)C3)CC2)nc(C(F)(F)F)c1 [Compound 25, {trans-3-(4-{[4-({[(2S)-2-hydroxypropyl]amino}methyl)-6-(trifluoromethyl)pyridin-2-yl]oxy}piperidin-1-yl)-1-[4-(7H-pyrrolo[2,3-d]pyrimidin-4-yl)-1H-pyrazol-1-yl]cyclobutyl}acetonitrile] | – |
| < 10 nM | >10 | N#CC[C@]1(n2cc(-c3ncnc4[nH]ccc34)cn2)C[C@H](N2CCC(Oc3cc(CCO)cc(C(F)(F)F)n3)CC2)C1 [Compound 26, {trans-3-(4-{[4-(2-hydroxyethyl)-6-(trifluoromethyl)pyridin-2-yl]oxy}piperidin-1-yl)-1-[4-(7H-pyrrolo[2,3-d]pyrimidin-4-yl)-1H-pyrazol-1-yl]cyclobutyl}acetonitrile] | – |
